The assay deals with Plasmodium falciparum. Kind of assay: GSK_TCMDC: Inhibition of Plasmodium falciparum 3D7 in whole erythrocytes, using parasite LDH activity as an index of growth. Type of assay: functional, organism-based.

Compound `Cc1nc2ccc3ccc(CNc4ccc(C(=O)CC(CCC(=O)O)C(=O)O)cc4)cc3c2c(=O)[nH]1` (stereo not drawn) registered an XC50 (Plasmodium falciparum, 3D7) of 0.0357 µM.
On the same count and under the same terms, with `COc1ccc(NC(=O)C2CCN(CCCCCNC(=O)/C=C/c3ccc(Cl)c(Cl)c3)CC2)cc1` the figure was 0.828 µM.
On the same count and under the same terms, then `C[C@@H](C(N)=O)N1CCCCC1c1ccc(OCc2cccc(F)c2)cc1` (stereo partly drawn), with 0.989 µM.
`N#Cc1c(Cl)cccc1Oc1ccc(S(=O)(=O)NC2CCC(CN3CCC(c4c[nH]c5ccccc45)CC3)CC2)cc1` (stereo not drawn): the XC50 turned out to be 0.714 µM. The XC50 (Plasmodium falciparum, 3D7) was 1.07 µM.
In turn, `Cc1cc(=O)c(-c2ccc(OCCSc3ccc(C(F)(F)F)cn3)cc2)c(C)[nH]1` yielded an XC50 (Plasmodium falciparum, 3D7) of 0.527 µM.
The same measure, in the same setting: then `CS(=O)(=O)c1ccc(-c2nc(NCC3CCCCC3)cc(C(F)(F)F)n2)cc1`, with 0.667 µM; and `CCCc1cc(Cc2cnc(N)nc2N)cc(CCC)c1OCCCCC(=O)OC`, with 0.0419 µM.
Same read-out and setting: with `COc1cccc2c(NN=Cc3cccc(F)c3)ccnc12` the figure was 0.932 µM; with `COc1cc(NC2CCCC(NCc3cn(S(=O)(=O)c4ccccc4)c4ccccc34)C2)nc2ccccc12` (stereo not drawn), 0.248 µM.
The same measure, in the same setting: with `COc1ccc(-c2ccccc2OCCCNc2nc(NCCc3ccc(O)cc3)nc(N3CCNCC3)n2)cc1` the figure was 0.785 µM; with `N#Cc1cccc(C(=O)NC2CCN(c3ccnc(Nc4ccc(F)cc4)n3)C2)c1` (stereo not drawn), 0.396 µM.
For `CCCC(C)Nc1nc(C)cc(N[C@@H](Cc2ccccc2)C(=O)NCCOc2ccccc2)n1` (stereo partly drawn), the XC50 (Plasmodium falciparum, 3D7) came out at 0.699 µM.
In turn, `C#CCCOc1ccc2ccccc2c1CNCCCCCCNCc1c(OCCC#C)ccc2ccccc12` yielded an XC50 (Plasmodium falciparum, 3D7) of 0.811 µM.
The same measure, in the same setting: with `CCCOc1ccc(CCNCCCCNCCc2ccc(OCCC)c3ccccc23)c2ccccc12` the figure was 0.917 µM; with `N#Cc1ccc(-c2cnc3ccc(NCCc4cccnc4)nn23)cc1`, 0.255 µM.
The same measure, in the same setting: then `COc1cc(NC(=O)N2CCc3ccc(OCCN4CCCCC4)cc32)cc(C(F)(F)F)c1`, with 0.266 µM.
The same measure, in the same setting: then `CCCC(CNCc1cccc(OC(F)(F)F)c1)CNc1cc(=O)c2ccccc2[nH]1` (stereo not drawn), with 0.556 µM; and `Cn1nccc1C(=O)NCCNCc1cccc(-c2cccc(-c3nc4cc(C(F)(F)F)ccc4[nH]3)c2)c1`, with 0.172 µM; and `Cc1cccc2nc(-c3ccc(-c4ccc(CN5CCC(C(N)=O)CC5)cc4)s3)[nH]c12`, with 0.907 µM.
`CCCNCc1ccc(-c2ccc(CN(CCOC)C(=O)CC3CCCC3=O)cc2)nc1` (stereo not drawn) had an XC50 (Plasmodium falciparum, 3D7) of 1.24 µM.
Still for that read-out and setting: then `CC(CCc1ccccc1)NCC(O)c1ccc2c(c1)S(=O)(=O)c1ccccc1N2` (stereo not drawn), with 1.22 µM.
The same measure, in the same setting: then `COc1ccc(Nc2nc(C)cc(NC3CCCC3)n2)cc1`, with 0.872 µM.
Still for that read-out and setting: with `Cc1cc(N2CCCC2)nc(Nc2ccc(NC(=O)COc3ccccc3)cc2)n1` the figure was 0.647 µM.
In the case of `Cc1cccc2nc(-c3ccc(-c4ccc(CNCCNC(=O)c5ccnn5C)cc4)cc3)[nH]c12`, the XC50 (Plasmodium falciparum, 3D7) came out at 0.48 µM.
On the same count and under the same terms, with `COc1ccc(C2CC(=O)C3=C(C2)NC(C)=C(C(=O)OC(C)C)C3c2c(F)cccc2Cl)cc1OC` (stereo not drawn) the figure was 0.824 µM; with `O=S1(=O)NC2(CCN(CCc3ccc(Cl)cc3)CC2)Nc2cc(F)cc(F)c21`, 1.46 µM; with `COC(=O)c1ccc(CC(C)NCC(O)c2cccc(C(F)(F)F)c2)cc1F` (stereo not drawn), 1.06 µM.
The same measure, in the same setting: then `COc1cc2c(cc1OCCN1CCC(N3CCCC3)CC1)N(C(=O)/C=C/c1ccccc1Cl)CC2`, with 0.659 µM; and `CC(C)(C)CNc1noc(-c2sccc2Br)n1`, with 1.12 µM; and `O=C(Nc1cccc(OC2CCN(Cc3ccccc3)CC2)c1)c1ccc([N+](=O)[O-])cc1`, with 0.661 µM.
Consider `C=C[C@H]1CN2CC[C@H]1C[C@H]2[C@H](O)c1ccnc2ccccc12` [CINCHONIDINE], for which the XC50 (Plasmodium falciparum, 3D7) amounted to 0.172 µM.
The same measure, in the same setting: then `CCNc1cc(C(=O)N[C@@H](Cc2ccc(F)c(F)c2)[C@H](O)CNCc2cccc(OC)c2)cc(N2CCCCS2(=O)=O)c1`, with 0.749 µM; and `CCOc1cc(OCC)c2ccccc2c1CNCCCCCCNCc1c(OCC)cc(OCC)c2ccccc12`, with 0.305 µM.
Turning to `Cc1nc(C)c(CC(=O)Nc2cccc(-c3cccc(-c4nc5cccc(C)c5[nH]4)c3)c2)s1`, the XC50 (Plasmodium falciparum, 3D7) worked out at 0.755 µM.
Same read-out and setting: then `O=C(/C=C/c1ccc(Cl)c(Cl)c1)NCCCCCN1CCCC(C(=O)Nc2ccc(Cl)cc2)C1` (stereo not drawn), with 0.851 µM; and `CC(C)CNCc1cccc(-c2cccc(CN(C(=O)NC3CCCCC3)C3CCN(Cc4ccccc4)CC3)c2)c1`, with 0.821 µM.
The same measure, in the same setting: then `COc1ccc2[nH]c(/C=C/c3cccc4ccc(C)nc34)nc2c1`, with 0.792 µM; and `CC=Cc1cc(Cc2c[nH]c(=N)[nH]c2=N)cc(CCC)c1OC`, with 0.783 µM.
Same read-out and setting: then `CN(C)c1ccc(-c2nc3cc(N)ccc3[nH]2)cc1`, with 0.239 µM; and `O=C1CCCN1CCCNCc1cccc(-c2cccc(-c3nc4cc(C(F)(F)F)ccc4[nH]3)c2)c1`, with 0.299 µM; and `CCOc1cc(C=NNc2nc(C)cc(-n3nc(C)cc3C)n2)ccc1O`, with 1.08 µM.
Compound `CCCCOc1c(CCNCCCCNCCc2cc(OC)c3ccccc3c2OCCCC)cc(OC)c2ccccc12` gave an XC50 (Plasmodium falciparum, 3D7) of 0.925 µM.
For the compound `CCc1cn(CCc2ccccc2)c2ccc(C(=O)N[C@@H](Cc3ccccc3)[C@H](O)CNC(C)(C)CCCC(C)C)cc12`, the XC50 (Plasmodium falciparum, 3D7) turned out to be 0.219 µM.
On the same count and under the same terms, with `COc1ccc2nc(C)cc(NCc3cccc4ccccc34)c2c1` the figure was 0.217 µM; with `CCOc1ccc(C(C)NC(=O)Cc2ccccc2F)cc1OCC` (stereo not drawn), 0.844 µM.
Still for that read-out and setting: with `COc1ccc2c(NN=Cc3ccc(F)cc3)ccnc2c1` the figure was 0.438 µM; with `O=C(Nc1ccc(Cl)cc1)c1cc(Cl)cc2nc(C(F)(F)F)[nH]c12`, 0.131 µM; with `CCC(=C(CC)c1ccc(O)c(CNC2CCCCC2)c1)c1ccc(O)c(CNC2CCCCC2)c1`, 0.152 µM.
Still for that read-out and setting: then `CCCc1cnc2nc(N)nc(N)c2c1C`, with 1.12 µM.
For the setting “Plasmodium falciparum, 3D7”, `CN(C(=O)NCCc1ccccc1)C1CCN(CCCCCNC(=O)/C=C/c2ccc(Cl)c(Cl)c2)CC1` displayed an XC50 of 0.678 µM.
On the same count and under the same terms, then `COc1ccc2nccc([C@@H](O)CN3CCC(NS(=O)(=O)c4cc5c(cc4Cl)SCC(=O)N5)CC3)c2c1`, with 0.982 µM.
On the same count and under the same terms, then `c1ccc2[nH]c(-c3ccc(-c4ccc(CN5CCN(c6ccncc6)CC5)cc4)s3)nc2c1`, with 0.202 µM; and `c1ccc(Oc2ccc(Nc3ccnc(Nc4ccc(CN5CCOCC5)cc4)n3)cc2)cc1`, with 0.941 µM; and `N=C(N)c1ccc(C=Cc2ccc(C(=N)N)cc2O)cc1`, with 0.103 µM.
Still for that read-out and setting: then `N=C(N)NN=CC(=O)Nc1ccc(Cl)c(C(F)(F)F)c1`, with 0.892 µM; and `CN(C)CCC1CCN(CCS(=O)(=O)c2cccc(Nc3ncc(-c4cccc(F)c4)cn3)c2)CC1`, with 1.06 µM.
The compound `O=C(NCC1CCC1)c1cnc(Nc2cccc(Cl)c2)nc1N1CCC1` came in with an XC50 (Plasmodium falciparum, 3D7) of 0.862 µM.
Still for that read-out and setting: then `CN1CCCN(Cc2ccc(-c3cccc(NC(=O)c4cccc(C#N)c4)c3)cc2)CC1`, with 0.651 µM; and `COc1ccc(C)c(Nc2ccnc(Nc3ccc(-c4cnc[nH]4)cc3)n2)c1`, with 1.37 µM.
In turn, `FC(F)(F)c1ccc2[nH]c(-c3ccc(-c4ccc(CN5CCN(c6cnccn6)CC5)cc4)s3)nc2c1` showed an XC50 (Plasmodium falciparum, 3D7) of 0.652 µM.
The same measure, in the same setting: with `CC1CN(c2cc(=O)n(Cc3cccc(NC(=O)Nc4ccc(-c5ccccc5)cc4)c3)cn2)CC(C)N1` (stereo not drawn) the figure was 0.396 µM; with `CC(C)(C)c1ccc(OC(=O)c2ccc(NC(=O)N[C@@H](Cc3ccc(O)cc3)C(=O)NC3CCN(Cc4ccc(O)cc4)C3)cc2)cc1` (stereo partly drawn), 0.814 µM.
The same measure, in the same setting: with `CCCn1c(Sc2ccc(C#N)c([N+](=O)[O-])c2)nnc1-c1ccc(OC)cc1` the figure was 0.865 µM; with `COc1ccc2nccc([C@@H](O)CN3CCC(NC(=O)Cc4cc5ccccc5s4)CC3)c2c1`, 0.906 µM.
Same read-out and setting: with `O=C(Nc1ccc(-c2cccc(-c3nc4cc(C(F)(F)F)ccc4[nH]3)c2)cc1)c1csnn1` the figure was 0.802 µM; with `CCCC(=O)Nc1ccc(OCCCN(Cc2ccccc2C(F)(F)F)c2ccc(C#N)c(C(F)(F)F)c2)cc1`, 0.926 µM; with `COc1cccc(CN2CCCC(OC(c3ccc(F)cc3)c3ccc(F)cc3)C2)c1O` (stereo not drawn), 0.788 µM.
Consider `CC(Cc1ccc(OCCN2CCN(c3cccc(Cl)c3)CC2)cc1)NCC(O)c1cccc(C(F)(F)F)c1` (stereo not drawn), for which the XC50 (Plasmodium falciparum, 3D7) stood at 0.602 µM.
For the compound `CCN(CCCN1CCCCC1)c1cc(C)nc(Nc2ccc(C)cc2Br)n1`, the XC50 (Plasmodium falciparum, 3D7) stood at 0.172 µM.
On the same count and under the same terms, then `COc1ccc(Cl)cc1N1CCN(CCCNC(=O)c2ccc(-c3nc4cc(Cl)c(C)cc4[nH]3)c(F)c2)CC1`, with 0.185 µM; and `CCN(CC)CCN(Cc1ccc(-c2ccc(C(F)(F)F)cc2)cc1)C(=O)Cn1c(CCc2cccc(F)c2F)c(C)c(=O)c2ccccc21`, with 0.942 µM; and `O=C(NCC1CCN(Cc2cccc(C(F)(F)F)c2)C1)c1cc(-c2cccc(Cl)c2)cs1` (stereo not drawn), with 0.803 µM.
In turn, `O=C(C=Cc1ccccc1C(F)(F)F)NC1CCC(CN2CCC(c3c[nH]c4ccccc34)CC2)CC1` (stereo not drawn) displayed an XC50 of 0.902 µM. Also, where the note is “Plasmodium falciparum, 3D7”, the XC50 was 0.677 µM.
Under “Plasmodium falciparum, 3D7”, `COc1ccc2c(=NN=C(C)c3ccccn3)cc(C)[nH]c2c1` yielded an XC50 of 0.722 µM.
Same read-out and setting: then `CCCCc1ccc(Cc2cnc3nc(N)nc(N)c3c2C)cc1`, with 0.235 µM; and `Cc1cccc2nc(-c3cccc(-c4ccc(NC(=O)C(C)C(=O)NC(C)C)cc4)c3)[nH]c12` (stereo not drawn), with 1 µM.
Still for that read-out and setting: then `NCc1ccc(-c2ccccc2CNC2CCN(Cc3ccccc3)CC2)cc1`, with 0.765 µM.
In the case of `CN1CCCc2ccc(NC(=O)Nc3ccc(-c4ccccc4)cc3)cc2C1`, the XC50 (Plasmodium falciparum, 3D7) came out at 0.38 µM.
Under “Plasmodium falciparum, 3D7”, `O=C(NCc1cccc(F)c1)Nc1cccc(-c2cccc(-c3nc4ccccc4[nH]3)c2)c1` displayed an XC50 of 0.389 µM.
The same measure, in the same setting: with `O=C(COc1ccc(Cl)c(Cl)c1)NCCCCCN1CCCN(C(=O)Nc2cc(Cl)cc(Cl)c2)CC1` the figure was 1.14 µM.
On the same count and under the same terms, with `COc1ccc(CON2C(=N)N=C(N)NC2(C)C)cc1OC` the figure was 0.00606 µM; with `O=c1cc(NCCCNC2CCCc3c2cc(Cl)c(Cl)c3Cl)[nH]c2ccccc12` (stereo not drawn), 0.276 µM; with `CC(=O)Nc1ncc(C(=O)Nc2cccc(-c3ccc(-c4nc5cccc(C)c5[nH]4)cc3)c2)s1`, 0.643 µM.
The same measure, in the same setting: with `O=C(CCc1c[nH]cn1)Nc1ccc(-c2ccc(-c3nc4ccccc4[nH]3)cc2)cc1` the figure was 0.705 µM; with `Cc1ccc(C(=O)Cn2nc(-c3ccc(C)c(S(=O)(=O)N4CCCCC4)c3)ccc2=O)cc1`, 0.333 µM.
With `CCOC(=O)C(NC(=O)Cc1ccccc1)C(C)C` (stereo not drawn), under “Plasmodium falciparum, 3D7”, the XC50 came to 0.295 µM.

Source of the values: ChEMBL document CHEMBL1157539, “Thousands of chemical starting points for antimalarial lead identification” (Nature, 2010).
